Laboratory results from ChEMBL document CHEMBL1201862, “PubChem BioAssay data set” (2004).
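The compound was tested at five concentrations on cells cultured in 96-well plates, with a 48-hour exposure period. Here, GI50 denotes the concentration required for 50% inhibition of growth.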 Activity calls are given as the source filed them. Cut-off read from the data, not from the text of the source: active = GI50 up to about 1.1 µM and inactive = higher.

Columns and labels:
Assay in all cases: inhibition of tumour cell growth, NCI panel, 48 h
A498 = tested on: A498
HCC 2998 = tested on: HCC 2998
MOLT-4 = tested on: MOLT-4
NCI-H522 = tested on: NCI-H522
RXF 393 = tested on: RXF 393
SF-295 = tested on: SF-295
SF-539 = tested on: SF-539
SK-MEL-28 = tested on: SK-MEL-28
SN12C = tested on: SN12C
UACC-62 = tested on: UACC-62
UO-31 = tested on: UO-31
COLO 205 = tested on: COLO 205
SK-MEL-2 = tested on: SK-MEL-2
SW-620 = tested on: SW-620

Measured: GI50

Cc1cc(C)nc(NS(=O)(=O)c2ccc(Nc3c4ccccc4nc4c(C(=O)Nc5ccc(S(=O)(=O)Nc6cc(C)on6)cc5)ccc(Cl)c34)cc2)n1
inactive: A498 17.2 µM | HCC 2998 17.3 µM | MOLT-4 19.5 µM | NCI-H522 21.5 µM | RXF 393 14.8 µM | SF-295 20.7 µM | SF-539 21.5 µM | SK-MEL-28 27.7 µM | SN12C 21.3 µM | UACC-62 26.4 µM | UO-31 20.8 µM

C/C(=N\NS(=O)(=O)c1ccc(C)cc1)C(CN1CCCCC1)C(c1ccccc1)c1c(O)c2ccccc2oc1=O (centres undefined)
inactive: A498 > 100 µM | COLO 205 > 100 µM | HCC 2998 > 100 µM | NCI-H522 80.9 µM | RXF 393 39.6 µM | SF-295 > 100 µM | SF-539 > 100 µM | SK-MEL-2 > 100 µM | SN12C > 100 µM | SW-620 70.6 µM | UACC-62 > 100 µM | UO-31 > 100 µM

NC(CCCNCc1ccccc1)C(=O)O (centres undefined)
inactive: A498 > 100 µM | COLO 205 > 100 µM | MOLT-4 > 100 µM | NCI-H522 > 100 µM | SF-295 > 10 µM | SF-539 > 100 µM | SK-MEL-28 > 100 µM | SK-MEL-2 > 100 µM | SN12C > 100 µM | SW-620 > 100 µM | UACC-62 > 100 µM | UO-31 > 100 µM

O=C1c2ccccc2C(=O)C1C(c1ccc(F)cc1)C1C(=O)c2ccccc2C1=O
inactive: COLO 205 > 100 µM | HCC 2998 > 100 µM | MOLT-4 59.4 µM | NCI-H522 > 100 µM | RXF 393 24.8 µM | SF-295 > 100 µM | SF-539 > 100 µM | SK-MEL-28 > 100 µM | SK-MEL-2 > 100 µM | SN12C > 100 µM | SW-620 > 100 µM | UACC-62 > 100 µM | UO-31 > 100 µM

CN(C)/N=N/c1c[nH]nc1C(N)=O
inactive: A498 > 100 µM | COLO 205 > 100 µM | HCC 2998 > 100 µM | MOLT-4 > 100 µM | NCI-H522 42.9 µM | SF-295 > 100 µM | SF-539 > 100 µM | SK-MEL-28 > 100 µM | SK-MEL-2 > 100 µM | SN12C > 100 µM | SW-620 > 100 µM | UACC-62 16.2 µM

CCOC1=C2N=C(Cc3ccccc3F)N=C2C(=O)c2ccccc21
inactive: COLO 205 > 100 µM | HCC 2998 > 100 µM | MOLT-4 > 100 µM | NCI-H522 > 100 µM | RXF 393 > 100 µM | SF-295 > 100 µM | SF-539 > 100 µM | SK-MEL-28 > 100 µM | SK-MEL-2 > 100 µM | SN12C > 100 µM | SW-620 > 100 µM | UACC-62 > 100 µM | UO-31 > 100 µM

O=C(O)c1cc(S(=O)(=O)N/N=C\c2c3ccccc3[n+]([O-])c3ccccc23)ccc1O
inactive: A498 14.1 µM | COLO 205 15.1 µM | HCC 2998 6.97 µM | MOLT-4 3.8 µM | NCI-H522 8.3 µM | SF-295 4.45 µM | SK-MEL-28 12.3 µM | SK-MEL-2 16.9 µM | SN12C 17.9 µM | SW-620 11.3 µM | UACC-62 8.69 µM | UO-31 17.7 µM

COc1ccc(C=C(c2ccc(OCc3ccccc3)cc2)c2ccc(OCc3ccccc3)cc2)cc1
inactive: COLO 205 > 100 µM | HCC 2998 > 100 µM | NCI-H522 > 100 µM | RXF 393 > 100 µM | SF-295 > 100 µM | SF-539 > 100 µM | SK-MEL-28 > 100 µM | SK-MEL-2 > 100 µM | SN12C > 100 µM | SW-620 > 100 µM | UACC-62 > 100 µM | UO-31 > 100 µM

CCCCCCCCCCn1cccc1/C=C/c1ccc(/C=C/c2cccn2CCCCCCCCCC)cc1
inactive: A498 > 100 µM | COLO 205 > 100 µM | HCC 2998 > 100 µM | NCI-H522 > 100 µM | RXF 393 > 100 µM | SF-295 > 100 µM | SF-539 > 100 µM | SK-MEL-28 > 100 µM | SN12C > 100 µM | SW-620 > 100 µM | UACC-62 > 100 µM | UO-31 88.7 µM

CC1=Nn2c(nnc2-c2ccc(N)cc2)NC(C)(C)C1
inactive: A498 > 100 µM | COLO 205 > 100 µM | HCC 2998 > 100 µM | MOLT-4 > 100 µM | NCI-H522 > 100 µM | SF-295 > 100 µM | SF-539 > 100 µM | SK-MEL-28 > 100 µM | SK-MEL-2 > 100 µM | SW-620 > 100 µM | UACC-62 > 100 µM | UO-31 > 100 µM

COC12OCCN(C)C1=CC(=O)C1=NNC(C)C12 (centres undefined)
inactive: A498 > 100 µM | COLO 205 > 100 µM | HCC 2998 > 100 µM | MOLT-4 > 100 µM | NCI-H522 > 100 µM | RXF 393 > 100 µM | SF-295 > 100 µM | SF-539 > 100 µM | SK-MEL-28 > 100 µM | SN12C > 100 µM | SW-620 > 100 µM | UACC-62 > 100 µM | UO-31 > 100 µM

O=C(Nc1cc(Cl)c(Cl)cc1Cl)C(=O)C(C(=O)c1ccccc1)C1OC(=O)c2ccccc21 (centres undefined)
inactive: A498 > 100 µM | COLO 205 > 100 µM | HCC 2998 > 100 µM | MOLT-4 > 100 µM | NCI-H522 > 100 µM | RXF 393 > 100 µM | SF-295 > 100 µM | SK-MEL-28 > 100 µM | SN12C > 100 µM | SW-620 > 100 µM | UACC-62 > 100 µM | UO-31 > 100 µM

COC(=O)C1=C(C(=O)OC)C2(CCCCCC2=O)OC1=O (centres undefined)
inactive: A498 > 100 µM | COLO 205 > 100 µM | HCC 2998 > 100 µM | MOLT-4 > 100 µM | NCI-H522 > 100 µM | RXF 393 > 100 µM | SF-295 > 100 µM | SF-539 > 100 µM | SK-MEL-28 > 100 µM | SK-MEL-2 > 100 µM | SN12C > 100 µM | SW-620 > 100 µM | UACC-62 > 100 µM

CCOC(=O)C(Cc1ccccc1)NC(=O)c1nc[nH]c1/N=N/N(C)C (centres undefined)
inactive: A498 > 100 µM | COLO 205 > 100 µM | HCC 2998 > 100 µM | MOLT-4 > 100 µM | NCI-H522 > 100 µM | SF-295 > 100 µM | SF-539 > 100 µM | SK-MEL-28 > 100 µM | SK-MEL-2 > 100 µM | SN12C > 100 µM | SW-620 > 100 µM | UACC-62 > 100 µM | UO-31 > 100 µM

Cc1c2ccncc2c(C)c2c1[nH]c1ccc(OC(C)(C)C)cc12
inactive: A498 12.2 µM | COLO 205 1.47 µM | HCC 2998 1.85 µM | MOLT-4 1.67 µM | NCI-H522 2.44 µM | SF-295 2.07 µM | SF-539 1.57 µM | SK-MEL-28 1.76 µM | SK-MEL-2 2.03 µM | SW-620 2.14 µM | UACC-62 2.31 µM | UO-31 1.91 µM
